From PubChem BioAssay AID504426 (Johns Hopkins Ion Channel Center, 2011)
Calls of active or inactive are those of the source.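 Rule for the calls: active = channel current reduced at one or more tested doses, with a fitted dose-response curve; inactive = no curve fitted, or no current reduction at any dose.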

Biological target: Voltage-dependent T-type calcium channel subunit alpha-1H (Homo sapiens) (UniProt O95180)
Experiment: concentration-dependent block of Cav3.2 currents – automated patch clamp, HEK293 cells, mechanism study, dose response (AID 504426)
Conditions: Cav3.2-HEK293, automated patch clamp peak current; for current change, negative = inhibition: at 30 µM (top of the series)

Voltage-dependent T-type calcium channel subunit alpha-1H (Homo sapiens), sequence (O95180 whole entry, looked up): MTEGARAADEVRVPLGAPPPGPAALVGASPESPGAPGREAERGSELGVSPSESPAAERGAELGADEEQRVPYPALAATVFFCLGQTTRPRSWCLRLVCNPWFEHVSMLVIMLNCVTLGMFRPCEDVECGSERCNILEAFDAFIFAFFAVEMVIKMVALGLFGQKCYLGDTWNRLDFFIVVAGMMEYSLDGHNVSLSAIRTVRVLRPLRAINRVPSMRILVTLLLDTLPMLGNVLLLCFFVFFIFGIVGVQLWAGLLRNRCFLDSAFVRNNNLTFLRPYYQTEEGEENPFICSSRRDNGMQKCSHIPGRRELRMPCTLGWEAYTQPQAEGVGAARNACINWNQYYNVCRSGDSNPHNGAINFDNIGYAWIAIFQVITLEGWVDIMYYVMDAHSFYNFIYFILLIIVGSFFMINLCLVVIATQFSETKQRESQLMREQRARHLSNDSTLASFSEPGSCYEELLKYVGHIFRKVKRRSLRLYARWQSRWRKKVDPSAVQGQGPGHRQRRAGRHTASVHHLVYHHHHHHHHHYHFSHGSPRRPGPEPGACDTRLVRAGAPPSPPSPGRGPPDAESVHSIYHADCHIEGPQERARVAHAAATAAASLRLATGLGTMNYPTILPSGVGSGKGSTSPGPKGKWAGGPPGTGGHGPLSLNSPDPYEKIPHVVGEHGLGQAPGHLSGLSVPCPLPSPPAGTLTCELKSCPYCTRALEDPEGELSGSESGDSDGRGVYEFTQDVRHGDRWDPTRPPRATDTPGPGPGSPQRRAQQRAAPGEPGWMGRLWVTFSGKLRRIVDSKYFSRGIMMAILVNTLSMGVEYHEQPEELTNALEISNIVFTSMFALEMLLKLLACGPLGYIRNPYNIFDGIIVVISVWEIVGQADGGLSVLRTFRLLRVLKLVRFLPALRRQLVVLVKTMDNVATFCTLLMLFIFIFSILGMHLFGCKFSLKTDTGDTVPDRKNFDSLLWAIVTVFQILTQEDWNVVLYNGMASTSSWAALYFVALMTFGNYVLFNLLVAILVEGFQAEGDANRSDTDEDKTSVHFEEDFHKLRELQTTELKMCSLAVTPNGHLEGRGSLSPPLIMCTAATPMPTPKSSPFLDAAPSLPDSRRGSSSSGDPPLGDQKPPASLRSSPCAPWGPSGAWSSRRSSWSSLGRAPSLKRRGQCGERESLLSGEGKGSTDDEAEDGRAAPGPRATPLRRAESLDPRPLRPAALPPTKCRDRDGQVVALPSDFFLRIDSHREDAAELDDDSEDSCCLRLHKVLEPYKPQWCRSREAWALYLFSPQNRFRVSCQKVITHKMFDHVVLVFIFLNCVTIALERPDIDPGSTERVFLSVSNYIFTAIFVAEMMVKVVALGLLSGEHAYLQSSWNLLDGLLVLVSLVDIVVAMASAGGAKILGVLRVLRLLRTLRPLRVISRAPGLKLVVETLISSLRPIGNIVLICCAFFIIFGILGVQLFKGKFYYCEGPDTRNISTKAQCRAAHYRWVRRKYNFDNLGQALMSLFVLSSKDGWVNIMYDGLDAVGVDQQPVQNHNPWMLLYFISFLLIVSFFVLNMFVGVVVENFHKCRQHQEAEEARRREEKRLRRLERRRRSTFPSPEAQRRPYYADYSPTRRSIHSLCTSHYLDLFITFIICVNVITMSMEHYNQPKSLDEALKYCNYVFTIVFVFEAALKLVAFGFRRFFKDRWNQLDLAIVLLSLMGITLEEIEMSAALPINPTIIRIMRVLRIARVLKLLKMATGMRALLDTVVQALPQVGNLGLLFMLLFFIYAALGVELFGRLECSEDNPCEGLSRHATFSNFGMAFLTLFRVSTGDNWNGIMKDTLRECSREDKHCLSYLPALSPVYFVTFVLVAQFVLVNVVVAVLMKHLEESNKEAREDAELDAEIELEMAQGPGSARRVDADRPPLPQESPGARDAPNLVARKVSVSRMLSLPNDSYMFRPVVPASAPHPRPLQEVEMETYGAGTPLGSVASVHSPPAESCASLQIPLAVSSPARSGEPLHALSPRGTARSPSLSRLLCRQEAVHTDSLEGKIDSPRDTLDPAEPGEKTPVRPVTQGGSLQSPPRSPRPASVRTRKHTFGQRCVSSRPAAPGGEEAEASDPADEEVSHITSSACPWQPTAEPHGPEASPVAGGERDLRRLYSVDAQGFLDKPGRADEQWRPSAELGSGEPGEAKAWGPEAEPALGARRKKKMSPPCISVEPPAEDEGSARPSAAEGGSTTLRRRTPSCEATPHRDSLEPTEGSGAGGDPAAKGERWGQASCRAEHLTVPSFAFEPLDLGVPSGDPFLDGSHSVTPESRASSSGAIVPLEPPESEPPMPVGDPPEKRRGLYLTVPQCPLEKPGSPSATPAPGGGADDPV

| SMILES | IC50 [µM] | current change, negative = inhibition |
| --- | --- | --- |
| O=C(COc1ccc(F)cc1Cl)Nc1nnc(-c2ccc(F)c(F)c2)o1 | 13.5 | – |
| CC(C)(C)CCN1C[C@@H]2C(CNC(=O)c3cc(Cl)cc(Cl)c3)[C@@H]2C1 (some centres undefined) | 0.31 | – |
| Cc1ccc(-c2nnc(NC(=O)COc3ccc(F)cc3Cl)o2)cc1C | – | inactive |
| CC(C)(C)Cc1nnc(NC(=O)COc2ccc(Cl)cc2Cl)o1 | – | inactive |
